{"source": "patent EP2439195B1", "about": "“NAPHTHALENE CARBOXAMIDE DERIVATIVES AS INHIBITORS OF PROTEIN KINASE AND HISTONE DEACETYLASE, PREPARATION METHODS AND USES THEREOF” (Shenzhen Chipscreen Biosciences, Ltd., priority 2009, dated 2010)", "type_in_all_cases": "in vivo", "key": {"human HCT-8 colon cancer [1]": {"tested_on": "human HCT-8 colon cancer", "assay": "Nude mice tumor transplanted from human HCT-8 colon cancer (Example 52)", "conditions": "for Tumor weight: killed after 20 doses; for TGI (%): tumor growth inhibition", "protocol": "Female nu/nu mice of 18∼20g were fed by normal diet for 3 days. Then the cultured HCT-8 human colon cancer cells were implanted into the armpit of 50 mice. […] Each group had 8 mice. One group was treated with vehicle. One group was treated with Sutent, the positive control drug. […] Each group was dosed orally once a day for 24 days. Tumor volumes along with body weights were recorded twice per week. On the next day after 20 doses, the mice were killed, and tumors were weighed. The tumor growth inhibition of each group was calculated using the following formula: {[([…])} × 100%. [formula] The experimental results are shown in Table 6 and Figure 2."}, "[2]": {"tested_on": "SSMC7721 human liver cancer cells", "assay": "Nude mice tumor transplanted from human SSMC7721 liver cancer (Example 53)", "conditions": "for TGI (%): tumor growth inhibition", "protocol": "Female nu/nu mice of 18∼20g were fed by normal diet for 3 days. Then the cultured SSMC7721 human liver cancer cells were implanted into the armpit of 50 mice. […] One group was treated with vehicle. One group was treated with Sutent, the positive control drug. […] Each group was dosed orally once a day for 24 days. […] The tumor growth inhibition of each group was calculated using the following formula: {[([…])} × 100%. [formula] The experimental results are shown in Table 7 and Figure 3."}, "human HCT-8 colon cancer [3]": {"tested_on": "human HCT-8 colon cancer", "assay": "Nude mice tumor transplanted from human HCT-8 colon cancer (Example 54)", "conditions": "for TGI (%): tumor growth inhibition", "protocol": "(§1) Female nu/nu mice of 18∼20g were fed by normal diet for 3 days. Then the cultured HCT-8 human colon cancer cells were implanted into the armpit of 50 mice. […] Each group had 8 mice. One group was treated with vehicle. One group was treated with Sutent, the positive control drug. Two groups were treated with compound 33 at different concentrations. The other two groups were treated with compound 34 at different concentrations. Each group was dosed orally once a day for 20 days. […] The tumor growth inhibition of each group was calculated using the following formula: {[(the average tumor weight of control group)-(the average tumor weight of test group)]/(the average tumor weight of control group)} × 100%. [formula] The experimental results are shown in Table 8 and Figure 4."}, "[4]": {"tested_on": "human SSMC7721 liver cancer", "assay": "Nude mice tumor transplanted from human SSMC7721 liver cancer (Example 56)", "conditions": "for TGI (%): tumor growth inhibition", "protocol": "as §1, with “cultured SSMC7721” for “cultured HCT-8”, “human liver” for “human colon”, “compound 37” for “compound 34”, “for 30” for “for 20”, “Table 10” for “Table 8”, “Figure 6. Table10” for “Figure 4.”"}, "human HCT-8 colon cancer [5]": {"tested_on": "human HCT-8 colon cancer", "assay": "Nude mice tumor transplanted from human HCT-8 colon cancer (Example 55)", "conditions": "20 days; for TGI (%): tumor growth inhibition", "protocol": "Female nu/nu mice of 18∼20g were fed by normal diet for 3 days. Then the cultured HCT-8 human colon cancer cells were implanted into the armpit of 50 mice. […] One group was treated with vehicle. One group was treated with Sutent, the positive control drug. Two groups were treated with compound 33 at different concentrations. The other two groups were treated with compound 37 at different concentrations. Compound 33 was administered twice a day with an interval of 6 hours. For other groups, administration was performed once a day. Each group was dosed orally for 20 days. […] The tumor growth inhibition of each group was calculated using the following formula: {[(the average tumor weight of control group)-(the average tumor weight of test group)]/(the average tumor weight of control group)} × 100%. [formula] The experimental results are shown in Table 9 and Figure 5."}, "[6]": {"conditions": "2.5 mg/kg orally once a day for 24 days"}, "[7]": {"conditions": "5 mg/kg orally once a day for 24 days"}, "[8]": {"conditions": "10 mg/kg orally once a day for 24 days"}, "[9]": {"conditions": "20 mg/kg orally once a day for 24 days"}, "[10]": {"conditions": "30 mg/kg orally once a day for 20 days"}, "[11]": {"conditions": "60 mg/kg orally once a day for 20 days"}, "[12]": {"conditions": "30 mg/kg orally once a day for 30 days"}, "[13]": {"conditions": "60 mg/kg orally once a day for 30 days"}, "[14]": {"conditions": "30x2 mg/kg orally twice a day with an interval of 6 hours"}, "[15]": {"conditions": "60x2 mg/kg orally twice a day with an interval of 6 hours"}}, "data": [{"molecule": "COc1ccc2c(Oc3ccc4c(C(=O)Nc5ccccc5N)cccc4c3)ccnc2c1", "note": "[Compound 31, N-(2-aminophenyl)-6-(7-methoxyquinolin-4-yloxy)-1-naphthamide]", "values": [{"measurement": "Body weight (g) end", "setting": "human HCT-8 colon cancer [1]; 2.5 mg/kg orally once a day", "result": "24.5 ± 1.1", "unit": "g"}, {"measurement": "Tumor weight", "setting": "human HCT-8 colon cancer [1]; 2.5 mg/kg orally once a day", "result": "2.18 ± 1.28", "unit": "g"}, {"measurement": "Body weight (g) start", "setting": "human HCT-8 colon cancer [1]; 2.5 mg/kg orally once a day", "result": "20.3 ± 0.8", "unit": "g"}, {"measurement": "TGI (%)", "setting": "human HCT-8 colon cancer [1]; 2.5 mg/kg orally once a day", "result": 54.5, "unit": "%"}, {"measurement": "Body weight (g) end", "setting": "human HCT-8 colon cancer [1]; 5 mg/kg orally once a day", "result": "24.8 ± 1.5", "unit": "g"}, {"measurement": "Tumor weight", "setting": "human HCT-8 colon cancer [1]; 5 mg/kg orally once a day", "result": "0.78 ± 0.25", "unit": "g"}, {"measurement": "Body weight (g) start", "setting": "human HCT-8 colon cancer [1]; 5 mg/kg orally once a day", "result": "21.6 ± 1.4", "unit": "g"}, {"measurement": "TGI (%)", "setting": "human HCT-8 colon cancer [1]; 5 mg/kg orally once a day", "result": 83.8, "unit": "%"}, {"measurement": "Body weight (g) end", "setting": "human HCT-8 colon cancer [1]; 10 mg/kg orally once a day", "result": "23.7 ± 0.8", "unit": "g"}, {"measurement": "Tumor weight", "setting": "human HCT-8 colon cancer [1]; 10 mg/kg orally once a day", "result": "0.46 ± 0.15", "unit": "g"}, {"measurement": "Body weight (g) start", "setting": "human HCT-8 colon cancer [1]; 10 mg/kg orally once a day", "result": "20.7 ± 1.1", "unit": "g"}, {"measurement": "TGI (%)", "setting": "human HCT-8 colon cancer [1]; 10 mg/kg orally once a day", "result": 90.3, "unit": "%"}, {"measurement": "Body weight (g) end", "setting": "human HCT-8 colon cancer [1]; 20 mg/kg orally once a day", "result": "22.5 ± 1.6", "unit": "g"}, {"measurement": "Tumor weight", "setting": "human HCT-8 colon cancer [1]; 20 mg/kg orally once a day", "result": "0.19 ± 0.06", "unit": "g"}, {"measurement": "Body weight (g) start", "setting": "human HCT-8 colon cancer [1]; 20 mg/kg orally once a day", "result": "20.5 ± 1.3", "unit": "g"}, {"measurement": "TGI (%)", "setting": "human HCT-8 colon cancer [1]; 20 mg/kg orally once a day", "result": 96.1, "unit": "%"}, {"measurement": "Tumor weight", "setting": "[2]; [6]", "result": "1.63 ± 0.70", "unit": "g"}, {"measurement": "Body weight (g) end", "setting": "[2]; [6]", "result": "23.2 ± 2.1", "unit": "g"}, {"measurement": "Body weight (g) start", "setting": "[2]; [6]", "result": "20.1 ± 0.9", "unit": "g"}, {"measurement": "TGI (%)", "setting": "[2]; [6]", "result": 51.7, "unit": "%"}, {"measurement": "Tumor weight", "setting": "[2]; [7]", "result": "1.16 ± 0.55", "unit": "g"}, {"measurement": "Body weight (g) end", "setting": "[2]; [7]", "result": "24.8 ± 1.5", "unit": "g"}, {"measurement": "Body weight (g) start", "setting": "[2]; [7]", "result": "20.8 ± 1.2", "unit": "g"}, {"measurement": "TGI (%)", "setting": "[2]; [7]", "result": 65.4, "unit": "%"}, {"measurement": "Tumor weight", "setting": "[2]; [8]", "result": "0.70 ± 0.45", "unit": "g"}, {"measurement": "Body weight (g) end", "setting": "[2]; [8]", "result": "23.6 ± 1.5", "unit": "g"}, {"measurement": "Body weight (g) start", "setting": "[2]; [8]", "result": "20.4 ± 1.6", "unit": "g"}, {"measurement": "TGI (%)", "setting": "[2]; [8]", "result": 79.2, "unit": "%"}, {"measurement": "Tumor weight", "setting": "[2]; [9]", "result": "0.53 ± 0.28", "unit": "g"}, {"measurement": "Body weight (g) end", "setting": "[2]; [9]", "result": "21.0 ± 2.2", "unit": "g"}, {"measurement": "Body weight (g) start", "setting": "[2]; [9]", "result": "20.2 ± 1.7", "unit": "g"}, {"measurement": "TGI (%)", "setting": "[2]; [9]", "result": 84.4, "unit": "%"}]}, {"molecule": "COc1ccc2c(Oc3ccc4c(C(=O)NCc5ccc(C(=O)Nc6ccccc6N)cc5)cccc4c3)ccnc2c1", "note": "[Compound 33, N-(4-((2-aminophenyl)carbamoyl)benzyl)-6-(7-methoxyquinolin-4-yloxy)-1-naphthamide]", "values": [{"measurement": "Tumor weight", "setting": "human HCT-8 colon cancer [3]; [10]", "result": "2.31 ± 0.43", "unit": "g"}, {"measurement": "Body weight (g) end", "setting": "human HCT-8 colon cancer [3]; [10]", "result": "21.1 ± 2.2", "unit": "g"}, {"measurement": "Body weight (g) start", "setting": "human HCT-8 colon cancer [3]; [10]", "result": "19.0 ± 1.3", "unit": "g"}, {"measurement": "TGI (%)", "setting": "human HCT-8 colon cancer [3]; [10]", "result": 43.3, "unit": "%"}, {"measurement": "Tumor weight", "setting": "human HCT-8 colon cancer [3]; [11]", "result": "1.98 ± 0.61", "unit": "g"}, {"measurement": "Body weight (g) end", "setting": "human HCT-8 colon cancer [3]; [11]", "result": "21.4 ± 1.5", "unit": "g"}, {"measurement": "Body weight (g) start", "setting": "human HCT-8 colon cancer [3]; [11]", "result": "19.4 ± 0.8", "unit": "g"}, {"measurement": "TGI (%)", "setting": "human HCT-8 colon cancer [3]; [11]", "result": 51.5, "unit": "%"}, {"measurement": "Tumor weight", "setting": "[4]; [12]", "result": "1.63 ± 0.47", "unit": "g"}, {"measurement": "Body weight (g) end", "setting": "[4]; [12]", "result": "24.0 ± 1.7", "unit": "g"}, {"measurement": "Body weight (g) start", "setting": "[4]; [12]", "result": "20.8 ± 0.5", "unit": "g"}, {"measurement": "TGI (%)", "setting": "[4]; [12]", "result": 27.8, "unit": "%"}, {"measurement": "Tumor weight", "setting": "[4]; [13]", "result": "1.48 ± 0.89", "unit": "g"}, {"measurement": "Body weight (g) end", "setting": "[4]; [13]", "result": "25.4 ± 2.8", "unit": "g"}, {"measurement": "Body weight (g) start", "setting": "[4]; [13]", "result": "21.4 ± 1.3", "unit": "g"}, {"measurement": "TGI (%)", "setting": "[4]; [13]", "result": 34.4, "unit": "%"}, {"measurement": "Tumor weight", "setting": "human HCT-8 colon cancer [5]; [14]", "result": "0.73 ± 0.36", "unit": "g"}, {"measurement": "Body weight (g) end", "setting": "human HCT-8 colon cancer [5]; [14]", "result": "22.6 ± 1.6", "unit": "g"}, {"measurement": "Body weight (g) start", "setting": "human HCT-8 colon cancer [5]; [14]", "result": "21.1 ± 1.2", "unit": "g"}, {"measurement": "TGI (%)", "setting": "human HCT-8 colon cancer [5]; [14]", "result": 88.1, "unit": "%"}, {"measurement": "Tumor weight", "setting": "human HCT-8 colon cancer [5]; [15]", "result": "0.45 ± 0.05", "unit": "g"}, {"measurement": "Body weight (g) end", "setting": "human HCT-8 colon cancer [5]; [15]", "result": "19.0 ± 1.8", "unit": "g"}, {"measurement": "Body weight (g) start", "setting": "human HCT-8 colon cancer [5]; [15]", "result": "20.1 ± 0.9", "unit": "g"}, {"measurement": "TGI (%)", "setting": "human HCT-8 colon cancer [5]; [15]", "result": 92.6, "unit": "%"}]}]}
